5 compounds from US9150495B2, “Polyamine transporter selective compounds as anti cancer agents” (University of Central Florida Research Foundation, Inc., priority 2007, dated 2015) can be followed below.

Structures can show the parent of a compound that is named as a salt. Bounds are passed on as bounds.

The target of assay [1] is Topoisomerase IIalpha (Topo IIa) (Homo sapiens, UniProt P11388). Kind of assay: Topo II kDNA decatenation assay (agarose gel). The assay is classed as biochemical. How it is done:
Thus the linear polyamine-anthracene conjugates herein disclosed (e.g., compound 4) were evaluated as Topo II inhibitors. A well established in vitro Topo II assay (as used previously) allowed us to determine whether these new conjugates (previously described compound A and novel compound 4 of the present invention) have the ability to inhibit Topo II by preventing Topo IIa from decatenating (i.e., disentangling) kinetoplast DNA (kDNA).
A negative image of agarose gel electrophoresis is visualized under UV light. Drugs were incubated with kDNA (200 ng) and Topo IIa (4 units) in reaction buffer prior to loading onto the gel. Neg. Control (−): kDNA only; Pos. Control (+): kDNA+Topo II (without conjugate); Inhibitory Control (B, rightmost lane): Berenil (50 μM). All other lanes contain the corresponding conjugate at the listed μM concentrations. Positive Topo II activity is shown by the formation of nicked open circular (NOC) DNA (middle band) and covalently closed circular (CCC) DNA (bottom band). Inhibition is shown by the negative activity of Topo II where kDNA (top band) is not decatenated and remains in the well.
When kDNA was not incubated with drug and Topo II (negative control), no migration occurred on the gel and the kDNA remained in the well as expected, which was indicated by the single top band visualized in the well. When kDNA was incubated with Topo II in the absence of drug, the top band in the well disappeared completely while two bands representing the two decatenated products could be seen.

The next assay has as its system CHO cells. Kind of assay: CHO wild type cytotoxicity (active polyamine transport). The assay is classed as cell-based, Chinese hamster. Particulars: for IC50: Cricetulus griseus, CHO wild type cells, active PAT; for CHOMG/CHO IC50 Ratio: IC50 in CHOMG / IC50 in CHO, PAT selectivity. Here is the method: (§1) Chinese hamster ovary cells (CHO cells) have an active polyamine transporter. This cell type is very susceptible to drugs which use the polyamine transporter system to gain access to cells (i.e. polyamine conjugates). The PAT targeting selectivity was determined using a Chinese hamster cell assay. The CHO wild type cells have active polyamine transport activity and therefore should be very susceptible to the polyamine conjugate and give low IC50 values. […] The lower the value the more cytotoxic the drug is to that cell type. In contrast, the mutant CHO-MG cells, which have no PAT activity are not as sensitive to the polyamine conjugate (which is unable to enter these cells via the defective PAT) and give higher IC50 values. We express these as a ratio of the IC50 value in CHOMG/IC50 value in CHO. The higher the ratio the more PAT selective is the polyamine conjugate drug. […] Cytotoxicity experiments were also performed in murine leukemia cells (L1210, Table 3) with and without the presence of difluoromethylornithine (DFMO), a known inhibitor of ornithine decarboxylase (the enzyme responsible for polyamine biosynthesis). Typically, when one blocks the ability of cells to synthesize polyamines, the cells respond by increasing their import of extracellular polyamines via PAT. Therefore, if our drugs are PAT-selective we should see a lowering of their respective IC50 values in the presence of DFMO, a molecule which facilitates the drug's import. […] Ki values indicate the binding affinity of the compounds for the PAT. Using competition experiments with radiolabeled spermidine, we were able to rank the binding affinity of the compounds for the PAT. Low Ki values mean the compound has a high binding affinity for the PAT.

The test system of another assay is CHO-MG cells. Kind of assay: CHO-MG cytotoxicity (PAT-deficient mutant cells). Particulars: Cricetulus griseus, no PAT activity, read-out: CHOMG IC50. The assay is classed as cell-based, Chinese hamster. Here is the method:
as §1, with “which are chemically mutated to be” for “(CHO cells) have an active”, “transport-deficient will be referred to as the CHO-MG” for “transporter. This”, “line. […]” for “type is very susceptible to drugs which use the polyamine transporter system to gain access to cells (i.e. polyamine conjugates).”

Assay [2] has as its system L1210 cells. Kind of assay: L1210 cytotoxicity in presence of DFMO. The format is cell-based, mouse. As to conditions: in the presence of DFMO. How it is done: (§2) L1210 cells are mouse leukemia cells and are a standard well used benchmark for evaluating cytotoxicity of new drug systems, especially polyamine containing drugs.
(§3) Cytotoxicity experiments were also performed in murine leukemia cells (L1210, Table 3) with and without the presence of difluoromethylornithine (DFMO), a known inhibitor of ornithine decarboxylase (the enzyme responsible for polyamine biosynthesis). Typically, when one blocks the ability of cells to synthesize polyamines, the cells respond by increasing their import of extracellular polyamines via PAT. Therefore, if our drugs are PAT-selective we should see a lowering of their respective IC50 values in the presence of DFMO, a molecule which facilitates the drug's import. […] Ki values indicate the binding affinity of the compounds for the PAT. Using competition experiments with radiolabeled spermidine, we were able to rank the binding affinity of the compounds for the PAT. Low Ki values mean the compound has a high binding affinity for the PAT.

Assay [3] has as its target polyamine transporter (PAT). Kind of assay: PAT binding affinity, competition with radiolabeled spermidine in L1210. The arrangement: species or system mouse. As to conditions: L1210 cells. Here is the method: “Ki value” reflects the affinity of the drug architecture for the polyamine transporter. The lower the value of the Ki, the higher the affinity of the drug for the polyamine transporter.
as §3

The subject of assay [4] is L1210 cells. Kind of assay: L1210 cytotoxicity. As to conditions: Mus musculus, without DFMO. The assay is classed as cell-based. Here is the method:
as §2, §3

Sequence of Topoisomerase IIalpha (Topo IIa) (P11388 whole entry): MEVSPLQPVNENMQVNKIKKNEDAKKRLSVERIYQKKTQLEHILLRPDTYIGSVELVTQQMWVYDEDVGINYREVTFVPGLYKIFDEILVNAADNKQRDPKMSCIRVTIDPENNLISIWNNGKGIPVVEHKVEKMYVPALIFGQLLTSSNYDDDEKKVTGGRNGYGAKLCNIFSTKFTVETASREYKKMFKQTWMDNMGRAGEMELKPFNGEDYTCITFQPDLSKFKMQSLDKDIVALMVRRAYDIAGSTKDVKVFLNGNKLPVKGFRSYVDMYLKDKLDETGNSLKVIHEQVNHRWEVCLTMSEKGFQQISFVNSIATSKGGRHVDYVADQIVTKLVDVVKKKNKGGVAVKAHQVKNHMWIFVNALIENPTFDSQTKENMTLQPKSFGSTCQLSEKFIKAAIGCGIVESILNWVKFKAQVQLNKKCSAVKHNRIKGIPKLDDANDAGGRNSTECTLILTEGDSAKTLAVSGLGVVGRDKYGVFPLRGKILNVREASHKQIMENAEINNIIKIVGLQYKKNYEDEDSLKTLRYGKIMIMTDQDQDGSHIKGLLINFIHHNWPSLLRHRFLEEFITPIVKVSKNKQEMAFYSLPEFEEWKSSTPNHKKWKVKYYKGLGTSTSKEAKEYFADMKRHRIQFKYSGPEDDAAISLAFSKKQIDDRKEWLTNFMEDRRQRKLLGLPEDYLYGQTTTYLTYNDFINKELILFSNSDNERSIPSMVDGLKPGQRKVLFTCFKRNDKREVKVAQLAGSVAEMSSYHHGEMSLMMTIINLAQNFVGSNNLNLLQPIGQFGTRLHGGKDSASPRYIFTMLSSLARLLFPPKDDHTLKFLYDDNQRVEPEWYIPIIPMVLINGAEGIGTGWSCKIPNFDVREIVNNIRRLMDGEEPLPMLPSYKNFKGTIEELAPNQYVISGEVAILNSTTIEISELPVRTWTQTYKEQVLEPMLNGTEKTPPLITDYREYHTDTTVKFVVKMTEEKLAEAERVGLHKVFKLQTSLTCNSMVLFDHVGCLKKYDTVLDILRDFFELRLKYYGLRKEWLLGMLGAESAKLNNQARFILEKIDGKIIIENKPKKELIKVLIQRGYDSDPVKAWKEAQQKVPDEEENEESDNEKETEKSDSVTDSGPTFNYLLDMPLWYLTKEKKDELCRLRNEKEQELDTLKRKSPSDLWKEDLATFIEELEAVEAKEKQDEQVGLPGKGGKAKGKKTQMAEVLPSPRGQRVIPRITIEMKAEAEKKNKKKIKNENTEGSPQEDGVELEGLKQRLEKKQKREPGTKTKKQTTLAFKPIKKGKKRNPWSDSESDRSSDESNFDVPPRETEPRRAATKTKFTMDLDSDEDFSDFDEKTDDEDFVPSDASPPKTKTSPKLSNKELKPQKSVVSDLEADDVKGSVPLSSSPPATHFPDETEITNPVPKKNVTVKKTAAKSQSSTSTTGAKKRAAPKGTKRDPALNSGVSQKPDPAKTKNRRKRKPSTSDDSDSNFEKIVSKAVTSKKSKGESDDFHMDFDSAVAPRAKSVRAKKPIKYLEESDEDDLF

Consider `CC(=O)NCC(=O)O.CC(=O)NCC(=O)O.N=C(N)c1ccc(N=NNc2ccc(C(=N)N)cc2)cc1` [Berenil, reference compound], for which the “Topo II inhibition (kDNA remaining in well)” value in assay [1] (50 μM, inhibitory control) was “good inhibition”.

For the compound `Cl.NCCCCNCCCCNCc1c2ccccc2c(CNCCCCNCCCCN)c2ccccc12` [Compound 4, N-(4-Amino-butyl)-N′-(10-{[4-(4-amino-butylamino)-butylamino]-methyl}-anthracen-9-ylmethyl)-butane-1,4-diamine, Hydrochloride salt], the “Topo II inhibition (kDNA remaining undecatenated)” value in assay [1] (5 μM, kDNA 200 ng, Topo IIa 4 units) is on record as “good inhibition”. In addition, in assay [1] (inhibition increased with drug concentration), the “Type of Topo II inhibition” value is “catalytic Topo-II inhibitors”. Besides, the 50% inhibitory concentration (IC50) is 45 ± 3 nM in the assay with CHO cells; > 100000 nM in the assay with CHO-MG cells; 220 ± 80 nM with L1210 cells [2] (Mus musculus, L1210); 780 ± 70 nM in the assay with L1210 cells [4]. The “CHOMG/CHO IC50 Ratio” value in the assay with CHO cells (Hydrochloride salt) is on record as >2222. Moreover, the inhibition constant Ki in assay [3] came out at 390 ± 50 nM.

As to `Cl.NCCCCNCCCCNCc1ccc(CNCCCCNCCCCN)c2ccccc12` [Compound 7, N-(4-Amino-butyl)-N′-(4-{[4-(4-amino-butylamino)-butylamino]-methyl}-naphthalen-1-ylmethyl)-butane-1,4-diamine, Hydrochloride salt], the IC50 in the assay on CHO cells was 120 ± 30 nM; in the assay with CHO-MG cells, > 100000 nM; with L1210 cells [4] it was 250 ± 80 nM. The “CHOMG/CHO IC50 Ratio” value in the assay with CHO cells was >833. The affinity in assay [3] corresponds to a Ki of 170 ± 20 nM.

Take `Cl.NCCCCNCCCCNCc1ccc(CNCCCCNCCCCN)cc1` [Compound 10, N-(4-Amino-butyl)-N′-(4-{[4-(4-amino-butylamino)-butylamino]-methyl}-benzyl)-butane-1,4-diamine, Hydrochloride salt]: the IC50 with CHO cells is 74 ± 10 nM; in the assay with CHO-MG cells it was 50200 ± 3800 nM; in the assay on L1210 cells [2] (Mus musculus, L1210), 360 ± 30 nM; in the assay with L1210 cells [4], 160 ± 10 nM. Moreover, the “CHOMG/CHO IC50 Ratio” value in the assay with CHO cells came out at 677. For the same compound, the affinity in assay [3] corresponds to a Ki of 520 ± 110 nM.

As for `NCCCCNCCCCNCc1cc(CNCCCCNCCCCN)cc(CN(CCCCN)CCCCN)c1` [Compound 15, N-(4-Amino-butyl)-N-(3,5-bis-{[4-(4-amino-butylamino)-butylamino]-methyl}-benzyl)-butane-1,4-diamine, nona-Hydrochloride Salt], the IC50 in the assay on CHO cells is > 500000 nM; with CHO-MG cells it was > 500000 nM; in the assay on L1210 cells [2] it was 49300 ± 10000 nM; with L1210 cells [4], 122000 ± 8100 nM. The compound further registered a Ki in assay [3] of 490 ± 20 nM.
